Data set [1] is described as follows: Behavior (solubility/dispersibility) in water and […] brine at 5% concentration. In kind it is physicochemical. The following applies: 5% concentration as is. The text has this: The compounds tested are set forth in the following Table 1, CE# denotes a comparative example, whereas S# denotes a compound of the present invention.
Data set [2] is described as follows: Anti-agglomeration of gas hydrates in presence of crude oil (high-pressure autoclave). The following applies: for State of the hydrates after depressurization: 1.125% solvent-free basis in salt water, 3300 psi, 40° F. 16 hours. As to the method:
The comparative test was carried out at a 50:50 oil to water ratio.
The crude oil was heated to 150° F. to dissolve waxes. […] To saturate the liquid with gas, after 30 minutes, the agitation was reduced to 100 rpm and the autoclave was cooled at 10° F./hr to 40° F., at which time, agitation was stopped and the 40° F. temperature was maintained for 16 hours.
After the 16 hour time period, agitation was restarted at 500 rpm to determine the torque required and the experiment was run for 5 hours, if possible. The autoclave was then rapidly depressurized and the state of the hydrates was observed.

Take “C12-C14 oxypropyl dibutyl ethylammonium ethylsulfate [Sample S4]”: in data set [1], the “Behavior in […] Brine” value was “Soluble” and the “Behavior in Water” value is given as “Soluble”.
On to “C12-C14 oxypropyl dibutyl methylammonium methyl sulfate [Sample S2]”, for which, in data set [1], the “Behavior in […] Brine” value was “Soluble” and the “Behavior in Water” value is reported as “Soluble”.
Take “C12-C14 oxypropyl dibutyl amino propyl tributylammonium dibromide [Sample S5]”: in data set [1], the “Behavior in […] Brine” value is “Soluble” and the “Behavior in Water” value is “Soluble”.
On to “C12-C14 oxypropyl tributylammonium bromide [Sample S1]”, for which the “State of the hydrates after depressurization” value in data set [2] (oil to water 50:50) and in data set [2] (oil to water 70:30) was “very small particles which were creamy in texture” in each case. Further, the “Gas hydrates on the walls of the reactor” value in data set [2] (1.125% solvent-free basis, 70:30 and 50:50 ratios) is on record as “No gas hydrates were observed on the walls of the reactor”. Also, the “Effectiveness as anti-agglomeration agent” value in data set [2] (low use levels) is reported as “highly effective”.
With `CCCCCCCCCCCCCCCC[N+](CCCC)(CCCC)CCCC.[Br-]` [CE2, Hexadecyl tributyl ammonium bromide, reference compound], the “Behavior in Water” value in data set [1] is on record as “Insoluble”.

The values above are taken from patent US6444852B1, “Amines useful in inhibiting gas hydrate formation” (Goldschmidt Chemical Corporation, priority 1999, dated 2002).
